Laboratory results reported in patent US9034921B2, “Diphenylmethane derivatives as SGLT2 inhibitors” (GREEN CROSS CORPORATION, priority 2011, dated 2015).

These compounds were tested against human SGLT2 (Homo sapiens (Human), UniProt P31639) (assay: Inhibitory effects on human SGLT2 activities (14C-AMG uptake, sodium-dependent glucose transport assay)). Conditions: CHO cells stably expressing hSGLT2, 37° C., 2 h, single determinations.
Type: cell-based
Procedure, shortened: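 CHO cells stably expressing hSGLT2 were preincubated 10 min at 37 °C in choline (Na+-free) buffer, then exposed 2 h at 37 °C to compound in Na+ uptake buffer with 8 μM 14C-AMG and 1 mM unlabeled AMG. Radioactivity was scintillation counted; IC50 came from nonlinear regression.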

Sequence of human SGLT2 (P31639 whole entry): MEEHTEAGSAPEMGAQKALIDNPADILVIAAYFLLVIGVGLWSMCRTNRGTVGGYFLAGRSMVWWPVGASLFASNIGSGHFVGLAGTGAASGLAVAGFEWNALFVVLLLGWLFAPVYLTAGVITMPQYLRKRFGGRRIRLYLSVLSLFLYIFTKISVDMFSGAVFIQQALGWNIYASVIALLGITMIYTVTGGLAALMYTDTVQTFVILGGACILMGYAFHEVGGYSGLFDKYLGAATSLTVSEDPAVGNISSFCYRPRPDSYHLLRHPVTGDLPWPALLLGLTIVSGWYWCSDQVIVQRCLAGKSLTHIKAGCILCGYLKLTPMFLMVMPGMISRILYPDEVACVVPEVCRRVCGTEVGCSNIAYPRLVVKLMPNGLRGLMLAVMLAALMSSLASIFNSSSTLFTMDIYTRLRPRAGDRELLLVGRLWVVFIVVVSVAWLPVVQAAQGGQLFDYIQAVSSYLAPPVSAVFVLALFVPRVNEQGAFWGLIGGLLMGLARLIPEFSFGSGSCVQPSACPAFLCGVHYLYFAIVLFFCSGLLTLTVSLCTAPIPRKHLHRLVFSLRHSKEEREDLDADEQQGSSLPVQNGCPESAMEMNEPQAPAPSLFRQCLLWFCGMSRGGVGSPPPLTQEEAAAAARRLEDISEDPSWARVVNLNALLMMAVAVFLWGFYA

| IC50 [nM] | SMILES |
| --- | --- |
| 8.63 | OC[C@H]1O[C@@H](c2ccc(Cl)c(Cc3ccc4nccnc4c3)c2)[C@H](O)[C@@H](O)[C@@H]1O [Example E026, (2S,3R,4R,5S,6R)-2-(4-Chloro-3-(quinoxalin-6-ylmethyl)phenyl)-6-(hydroxymethyl)tetrahydro-2H-pyran-3,4,5-triol] |
| 0.551 | CCOc1ccc(Cc2cc([C@@H]3O[C@H](CO)[C@@H](O)[C@H](O)[C@H]3O)c3c(c2Cl)CCC3)cc1 [Example E008, (2S,3R,4R,5S,6R)-2-(7-Chloro-6-(4-ethoxybenzyl)-2,3-dihydro-1H-inden-4-yl)-6-(hydroxymethyl)tetrahydro-2H-pyran-3,4,5-triol] |
| 0.728 | CCOc1ccc(Cc2cc([C@@H]3O[C@H](C)[C@@H](O)[C@H](O)[C@H]3O)c3c(c2Cl)OCC3)cc1 [Example E125, (2S,3R,4S,5S,6R)-2-(7-Chloro-6-(4-ethoxybenzyl)-2,3-dihydrobenzofuran-4-yl)-6-methyltetrahydro-2H-pyran-3,4,5-triol] |
| 1.34 | CNc1ccc(Cc2cc([C@@H]3O[C@H](CO)[C@@H](O)[C@H](O)[C@H]3O)c3c(c2Cl)CCC3)cc1 [Example E140, (2S,3R,4R,5S,6R)-2-(7-Chloro-6-(4-(methylamino)benzyl)-2,3-dihydro-1H-inden-4-yl)-6-(hydroxymethyl)tetrahydro-2H-pyran-3,4,5-triol 2,2,2-trifluoroacetate] |
| 1.82 | CCOc1ccc(Cc2cc([C@@H]3O[C@H](CO)[C@@H](O)[C@H](O)[C@H]3O)c3c(c2Cl)OCC3(C)C)cc1 [Example E225, (2S,3R,4R,5S,6R)-2-(7-Chloro-6-(4-ethoxybenzyl)-3,3-dimethyl-2,3-dihydrobenzofuran-4-yl)-6-(hydroxymethyl)-tetrahydro-2H-pyran-3,4,5-triol] |
| 0.681 | COc1ccc(Cc2cc([C@@H]3O[C@H](CO)[C@@H](O)[C@H](O)[C@H]3O)c3c(c2Cl)CCC3)cc1 [Example E005, (2S,3R,4R,5S,6R)-2-(7-Chloro-6-(4-methoxybenzyl)-2,3-dihydro-1H-inden-4-yl)-6-(hydroxymethyl)tetrahydro-2H-pyran-3,4,5-triol] |
| 1.76 | CC(C)n1ncc2cc(Cc3cc([C@@H]4O[C@H](CO)[C@@H](O)[C@H](O)[C@H]4O)ccc3Cl)ccc21 [Example E039, (2S,3R,4R,5S,6R)-2-(4-Chloro-3-((1-isopropyl-1H-indazol-5-yl)methyl)phenyl)-6-(hydroxymethyl)tetrahydro-2H-pyran-3,4,5-triol] |
| 4.66 | COc1ccc(Cc2cc([C@@H]3O[C@H](CO)[C@@H](O)[C@H](O)[C@H]3O)c3c(c2Cl)C(C)(C)CO3)cc1 [Example E218, (2S,3R,4R,5S,6R)-2-(4-Chloro-5-(4-methoxybenzyl)-3,3-dimethyl-2,3-dihydrobenzofuran-7-yl)-6-(hydroxymethyl)tetrahydro-2H-pyran-3,4,5-triol] |
| 1.17 | CCCc1ccc(Cc2cc([C@@H]3O[C@H](CO)[C@@H](O)[C@H](O)[C@H]3O)c3c(c2Cl)OCC3)cc1 [Example E187, (2S,3R,4R,5S,6R)-2-(7-Chloro-6-(4-propylbenzyl)-2,3-dihydrobenzofuran-4-yl)-6-(hydroxymethyl)tetrahydro-2H-pyran-3,4,5-triol] |
| 0.366 | C=Cc1ccc(Cc2cc([C@@H]3O[C@H](CO)[C@@H](O)[C@H](O)[C@H]3O)c3c(c2Cl)OCC3)cc1 [Example E171, (2S,3R,4R,5S,6R)-2-(7-Chloro-6-(4-vinylbenzyl)-2,3-dihydrobenzofuran-4-yl)-6-(hydroxymethyl)tetrahydro-2H-pyran-3,4,5-triol] |
| 0.551 | COc1cc([C@@H]2O[C@H](SC)[C@@H](O)[C@H](O)[C@H]2O)cc(Cc2ccc3c(c2)OCCO3)c1Cl [Example E113, (2S,3R,4R,5S,6R)-2-(4-Chloro-3-((2,3-dihydrobenzo[b][1,4]dioxin-6-yl)methyl)-5-methoxyphenyl)-6-(methylthio)tetrahydro-2H-pyran-3,4,5-triol] |
| 1.16 | Cc1c(Cc2ccc(C3CC3)cc2)cc([C@@H]2O[C@H](CO)[C@@H](O)[C@H](O)[C@H]2O)c2c1OCC2 [Example E178, (2S,3R,4R,5S,6R)-2-(6-(4-Cyclopropylbenzyl)-7-methyl-2,3-dihydrobenzofuran-4-yl)-6-(hydroxymethyl)tetrahydro-2H-pyran-3,4,5-triol] |
| 1.64 | OC[C@H]1O[C@@H](c2cc(Cc3ccc4c(c3)OCCO4)c(Cl)cc2O)[C@H](O)[C@@H](O)[C@@H]1O [Example E052, (2S,3R,4R,5S,6R)-2-(4-Chloro-5-((2,3-dihydrobenzo[b][1,4]dioxin-6-yl)methyl)-2-hydroxyphenyl)-6-(hydroxymethyl)-tetrahydro-2H-pyran-3,4,5-triol] |
| 4.22 | OC[C@H]1O[C@@H](c2cc(Cc3ccccc3)c(Cl)c3c2CCO3)[C@H](O)[C@@H](O)[C@@H]1O [Example E166, (2S,3R,4R,5S,6R)-2-(6-Benzyl-7-chloro-2,3-dihydrobenzofuran-4-yl)-6-(hydroxymethyl)tetrahydro-2H-pyran-3,4,5-triol] |
| 29.1 | CCOc1ccc(Cc2cc([C@@H]3O[C@H](OC)[C@@H](O)[C@H](O)[C@H]3O)c(OC)cc2Cl)cc1 [Example E109, (2S,3R,4R,5S,6S)-2-(4-Chloro-5-(4-ethoxybenzyl)-2-methoxyphenyl)-6-methoxytetrahydro-2H-pyran-3,4,5-triol] |
| 0.734 | COc1ccc(Cc2cc([C@@H]3O[C@H](CO)[C@@H](O)[C@H](O)[C@H]3O)c3c(c2C(F)F)CCC3)cc1 [Example E237, (2S,3R,4R,5S,6R)-2-(7-(Difluoromethyl)-6-(4-methoxybenzyl)-2,3-dihydro-1H-inden-4-yl)-6-(hydroxymethyl)tetrahydro-2H-pyran-3,4,5-triol] |
| 6.12 | CCOc1ccc(Cc2cc([C@@H]3O[C@H](CO)[C@@H](O)[C@H](O)[C@H]3O)c3c(c2Cl)N(C)CCO3)cc1 [Example E213, (2S,3R,4R,5S,6R)-2-(5-Chloro-6-(4-ethoxybenzyl)-4-methyl-3,4-dihydro-2H-benzo[b][1,4]oxazin-8-yl)-6-(hydroxymethyl)tetrahydro-2H-pyran-3,4,5-triol] |
| 1.15 | COc1ccc(Cc2cc([C@@H]3O[C@H](CO)[C@@H](O)[C@H](O)[C@H]3O)c3c(c2Br)CCC3)cc1 [Example E001, (2S,3R,4R,5S,6R)-2-(7-Bromo-6-(4-methoxybenzyl)-2,3-dihydro-1H-inden-4-yl)-6-(hydroxymethyl)tetrahydro-2H-pyran-3,4,5-triol] |
| 5.3 | Cc1c(Cc2ccc3c(c2)OCCO3)cc([C@@H]2O[C@H](CO)[C@@H](O)[C@H](O)[C@H]2O)cc1-c1ccccc1 [Example E084, (2S,3R,4R,5S,6R)-2-(5-((2,3-Dihydrobenzo[b][1,4]dioxin-6-yl)methyl)-6-methylbiphenyl-3-yl)-6-(hydroxymethyl)-tetrahydro-2H-pyran-3,4,5-triol] |
| 5.56 | OC[C@H]1O[C@@H](c2cc(Cc3ccc4c(c3)NCCO4)c(Cl)c3c2CCO3)[C@H](O)[C@@H](O)[C@@H]1O [Example E231, (2S,3R,4R,5S,6R)-2-(7-Chloro-6-((3,4-dihydro-2H-benzo[b][1,4]oxazin-6-yl)methyl)-2,3-dihydrobenzofuran-4-yl)-6-(hydroxymethyl)-tetrahydro-2H-pyran-3,4,5-triol] |
| 1.81 | N#CCc1ccc(Cc2cc([C@@H]3O[C@H](CO)[C@@H](O)[C@H](O)[C@H]3O)c3c(c2Cl)OCC3)cc1 [Example E203, 2-(4-((7-Chloro-4-((2S,3R,4R,5S,6R)-3,4,5-trihydroxy-6-(hydroxymethyl)tetrahydro-2H-pyran-2-yl)-2,3-dihydrobenzofuran-6-yl)methyl)phenyl)acetonitrile] |
| 1.23 | OC[C@H]1O[C@@H](c2ccc(Cl)c(Cc3ccc4c(c3)OCCO4)c2)[C@H](O)[C@@H](O)[C@@H]1O [Example E049, (2S,3R,4R,5S,6R)-2-(4-Chloro-3-((2,3-dihydrobenzo[b][1,4]dioxin-6-yl)methyl)phenyl)-6-(hydroxymethyl)-tetrahydro-2H-pyran-3,4,5-triol] |
| 1.63 | OC[C@H]1O[C@@H](c2cc(Cc3ccc(O)cc3)c(Cl)c3c2CCO3)[C@H](O)[C@@H](O)[C@@H]1O [Example E192, (2S,3R,4R,5S,6R)-2-(7-Chloro-6-(4-hydroxybenzyl)-2,3-dihydrobenzofuran-4-yl)-6-(hydroxymethyl)tetrahydro-2H-pyran-3,4,5-triol] |
| 1.25 | OC[C@H]1O[C@@H](c2cc(Cc3ccc(C(F)(F)F)cc3)c(Cl)c3c2CCO3)[C@H](O)[C@@H](O)[C@@H]1O [Example E124, (2S,3R,4R,5S,6R)-2-(7-Chloro-6-(4-(trifluoromethyl)benzyl)-2,3-dihydrobenzofuran-4-yl)-6-(hydroxymethyl)tetrahydro-2H-pyran-3,4,5-triol] |
| 1.75 | OC[C@H]1O[C@@H](c2ccc(Cl)c(Cc3ccc4c(c3)SCCO4)c2)[C@H](O)[C@@H](O)[C@@H]1O [Example E072, (2S,3R,4R,5S,6R)-2-(4-Chloro-3-((2,3-dihydrobenzo[b][1,4]oxathiin-6-yl)methyl)phenyl)-6-(hydroxymethyl)-tetrahydro-2H-pyran-3,4,5-triol] |
| 0.923 | CCc1ccc(Cc2cc([C@@H]3O[C@H](CO)[C@@H](O)[C@H](O)[C@H]3O)c3c(c2Cl)OCCO3)cc1 [Example E105, (2S,3R,4R,5S,6R)-2-(8-Chloro-7-(4-ethylbenzyl)-2,3-dihydrobenzo[b][1,4]dioxin-5-yl)-6-(hydroxymethyl)tetrahydro-2H-pyran-3,4,5-triol] |
| 3.67 | OC[C@H]1O[C@@H](c2ccc(Cl)c(Cc3ccc4c(c3)SCO4)c2)[C@H](O)[C@@H](O)[C@@H]1O [Example E066, (2S,3R,4R,5S,6R)-2-(3-(Benzo[d][1,3]oxathiol-5-ylmethyl)-4-chlorophenyl)-6-(hydroxymethyl)-tetrahydro-2H-pyran-3,4,5-triol] |
| 1.08 | CCc1ccc(Cc2cc([C@@H]3O[C@H](CO)[C@@H](O)[C@H](O)[C@H]3O)c3c(c2Cl)OCCCO3)cc1 [Example E165, (2S,3R,4R,5S,6R)-2-(9-Chloro-8-(4-ethylbenzyl)-3,4-dihydro-2H-benzo[b][1,4]dioxepin-6-yl)-6-(hydroxymethyl)tetrahydro-2H-pyran-3,4,5-triol] |
